Experimental data taken from US20130149383A1, “SUSTAINED RELEASE PARTICLE FORMULATIONS OF GUAIFENESIN” (priority 2011, published 2013).
≈ marks a conversion by molar mass, not a printed value.

Tests used:
[1] = Equilibrium solubility determination in liquid vehicle (HPLC); type: physicochemical; conditions: 40 °C, thermodynamic from solid; guaifenesin in liquid vehicle, 40° for two days, n=3
Experimental: The objective of this example was to determine the […] using “HPLC protocol”. About 500 mg of guaifenesin was added into 20 ml of a liquid vehicle. The suspend solution were then shaken and then placed at 40° for two days. The supernatant was then filtered off using a syringe with a 0.45 μm filter, and diluted so that the absorbencies fell within the UV (25-fold dilution). The diluted clear solutions were equilibrium solubility samples, termed as “samples” in the “HPLC protocol’. The “HPLC protocol” was then followed (See below).
A 20 mL of stock solution of the drug was prepared in DI water at a concentration of 1 mg/mL. The solution was left at room temperature for 5 min to get the drug dissolved. The stock solution was appropriately diluted to get several concentrations ranging from 0.1 mg/mL to 1 mg/mL (See FIG. 1). Samples were prepared by appropriately diluting the samples collected using “USP dissolution protocol” to ensure that the drug concentration level falls within the range of the standard curve (e.g., 2× dilution).
HPLC was prepared by first washing the column with the wash buffer (acetonitrile:water 50:50 (v/v)) for 10 min. […]

[2] = cited from earlier work

solubility thermodynamic at 2 days [1]: 9590 ± 340 µg/mL (≈ 48.4 mM)
Structure (SMILES): COc1ccccc1OCC(O)CO (centres unmarked) [Guaifenesin, 3-(2-methoxyphenoxy)-1,2-propanediol]
water solubility [2]: highly water soluble
